Results from patent publication US20130040291A1, “Detection and Quantification of Cellular Stress Response Resolution Pathway Expression and Functionality and the Effects of Agents or Conditions Thereupon” (priority 2011, published 2013).

System: CDNR4 cells
Format: cell-based, murine
Procedure: Following the cessation of the calibrated stress conditions exposure, the SR assay raw data is collected in the form of positive and negative wells (or cell growth sites) and in the form of viable or dead cell clones. The next steps of the assay involve expanding viable clones and determining their phenotypes. When the phenotype of interest being investigated in the SR assay is cell survival, the clones can be sub-classified using the testing listed in Table 6. This testing is performed as follows. Clones are removed from the tissue culture vessels in which they were placed before the start of the calibrated stress conditions exposure (using methods appropriate for the cell type), and subdivided into 4 different aliquots. Each aliquot is re-plated in an appropriate tissue culture vessel in medium containing the following. For one aliquot, the medium is growth medium (conditioned medium may be used) only; for a second aliquot the medium is supplemented with guanosine or folic acid at a concentration sufficient to enhance the survival and expansion of HPRT^− clones; for a third aliquot, the medium contains the same level of agent as used for the calibrated stress condition exposure, and the fourth aliquot is placed in HAT-medium containing an amount of aminopterin that is sufficient to induce growth arrest and/or cell death in Phen-HPRT^− cells of the cell type of interest (see above). Cell morphology (where informative for cell behavior and/or gene expression) and cell growth are monitored over the next 2, to 4 days to determine the response of the cells to these differing conditions. Cell clones can be subjected to additional testing as desired to evaluate further endpoints of interest and/or can be cryopreserved for future evaluations.
To subgroup Phen-ah clones as Phen-alt-rev or Phen-alt-irr, a representative group of these clones is tested further by subjecting the clones to repeated rounds of exposure to the calibrated stress conditions. Other stress inducing agents also may be used. Each exposure cycle is followed by a period of time to allow the cells to recover, and thus, to resolve the stress environment. After each exposure round, the percentage of cells that are resistant to the stress inducing agent or condition is recorded. […] The parental cell response that has been used in the examples below is defined as greater than 99% sensitivity to the calibrated stress conditions agent or condition, as evidenced by cell cycle arrest and/or cell death following exposure to the SR induction agent. Other stress response endpoints may be used and will depend upon the nature of the stress inducing agent used; these endpoints are incorporated herein.
The murine mammary epithelial cells designated CDNR4 were grown in their preferred growth medium (42% DMEM, 42% Hams F-12, 12% FBS, 1% 100×L-glutamine, 1% pen-strep, 0.5% to 1% bovine pituitary extract) until approximately 6 million cells were available. Cells were removed from the expansion flasks, counted, and replated at a rate of 500,000 cells per […] flask in growth medium. The flasks were assigned randomly to one of two groups: a vehicle-alone exposure (control group); an ENU-exposure (treated) group. […] For group 1 flasks, a volume of growth medium equal to the volume of ENU was added to the flasks. The cells were exposed to this solution for 1 hour at 37° C.; at the end of this time the solution was removed, the cells were washed with PBS at 37° C., and the cells were re-fed with fresh growth medium.
At the end of 2 weeks, the cells were removed from the flasks with trypsin/EDTA and passed through a 20 to 25 micron pore size sterile Nytran filter. The cell suspension was evaluated by light microscopy for evidence of large clumps, and was re-filtered if necessary using a new sterile Nytran filter of the same size to remove any apparent large clumps of cells. […]

[1] = ENU 2.0 micrograms/ml 1 hour (so in the source), 2-week expression period, 6-TG stress
[2] = ENU-exposed, average 6 out of 38 clones

## CCN(N=O)C(N)=O [ENU, ethylnitrosourea]
[1]
  CE / mutant frequency of Phen-HPRT^− clones: 160±40 ×10^−6
  CE of Phen-alt-irr clones: 690±170 ×10^−6
  CE of Phen-alt-rev clones: 180±130 ×10^−6
  CE of Phen-parental clones: 95±20 ×10^−6
ENU 20 micrograms/ml 1 hour
  reduction in total pro-survival pathway function, ENU-exposed versus vehicle-exposed: ~3 fold
ENU 20 micrograms/ml 1 hour, 6-TG 30 micrograms/ml 4 days, 600 cells per well
  fCEs for all surviving cell clones (total pro-survival pathway function): 1210±380 ×10^−6
ENU-exposed
  surviving population with damage, Phen-alt-rev clones included: 92%
ENU-exposed cells
  average CE for Phen-Hprt- and Phen-alt clones, Phen-alt-rev clones included: 1100±350 ×10^−6
  combined average fCE of Phen-parental and Phen-alt-rev clones: 280±150 ×10^−6
ENU-exposed cells, without Phen-alt-rev clones
  average fCE for Phen-Hprt^− clones and Phen-alt clones together (damage tolerance pathway function): 870±220 ×10^−6
ENU-exposed cells, 95÷35 micrograms 6-TG
  effect per unit dose of the calibrated stress conditions exposure upon CEs for Phen-parental clones: 2.7 CE/microgram 6-TG
ENU-exposed cells, SRID-10% of 6-TG (Example 5)
  post-calibrated stress condition fCEs: 95 ×10^−6
ENU-exposed, Hprt mutations plus irreversible phenotypic alterations
  surviving population with permanent genomic changes: 75%
ENU-exposed, average 3 out of 38 clones
  Phen-parental clones as share of the final surviving treated cell population: 9%
[2]
  surviving clones with evidence of DNA damage in the Hprt gene: 15%
  surviving clones with reversible phenotypic alterations: 17%
ENU-exposed, average 23 out of 38 clones
  surviving clones with irreversible phenotypic changes (Phen-alt-irr): 60%
ENU-treated cells, calibrated stress conditions at SRID-70% to 80%
  total survival frequency: approximately 128 ×10^−6
Treated versus control cells
  reduction in damage avoidance pathway function, Phen-parental clones only: approximately 25 fold
Versus Phen-parental fCE of control cells
  reduction in damage avoidance pathway function, Phen-parental and Phen-alt-rev together: 12 fold
